Laboratory results from ChEMBL document CHEMBL4507258 (2021).

Tests used:
Details in all cases: Compound concentration 1000.0 nM
[1] = molecular target: Aurora kinase A (Homo sapiens) (UniProt O14965)
[2] = molecular target: Aurora kinase C (Homo sapiens) (UniProt Q9UQB9)
[3] = molecular target: Calcium/calmodulin-dependent protein kinase type II subunit alpha (Homo sapiens) (UniProt Q9UQM7)
[4] = molecular target: Cyclin-dependent kinase 4 (Homo sapiens) (UniProt P11802)
[5] = molecular target: Cyclin-dependent kinase 4 (Homo sapiens) (UniProt P11802); remark: listed apart in the source
[6] = molecular target: Cyclin-dependent kinase 8 (Homo sapiens) (UniProt P49336)
[7] = molecular target: Macrophage colony-stimulating factor 1 receptor (Homo sapiens) (UniProt P07333)
[8] = test system: Epidermal growth factor receptor (Homo sapiens), P00533 [T790M]
[9] = molecular target: Mitogen-activated protein kinase 6 (Homo sapiens) (UniProt Q16659)
[10] = molecular target: Mitogen-activated protein kinase 4 (Homo sapiens) (UniProt P31152)
[11] = molecular target: Serine/threonine-protein kinase/endoribonuclease IRE1 (Homo sapiens) (UniProt O75460)
[12] = molecular target: Fibroblast growth factor receptor 3 (Homo sapiens) (UniProt P22607)
[13] = test system: Receptor-type tyrosine-protein kinase FLT3 (Homo sapiens), P36888 [D835Y]
[14] = test system: eIF-2-alpha kinase GCN2 (Homo sapiens), Q9P2K8 [S808G]
[15] = molecular target: Homeodomain-interacting protein kinase 4 (Homo sapiens) (UniProt Q8NE63)
[16] = molecular target: Inhibitor of nuclear factor kappa-B kinase subunit epsilon (Homo sapiens) (UniProt Q14164)
[17] = molecular target: Mitogen-activated protein kinase 10 (Homo sapiens) (UniProt P53779)
[18] = test system: Mast/stem cell growth factor receptor Kit (Homo sapiens), P10721 [V559D,T670I]
[19] = molecular target: LIM domain kinase 1 (Homo sapiens) (UniProt P53667)
[20] = molecular target: Mitogen-activated protein kinase kinase kinase 2 (Homo sapiens) (UniProt Q9Y2U5)
[21] = molecular target: Dual specificity mitogen-activated protein kinase kinase 1 (Homo sapiens) (UniProt Q02750)
[22] = molecular target: Serine/threonine-protein kinase 24 (Homo sapiens) (UniProt Q9Y6E0)
[23] = molecular target: Myosin light chain kinase family member 4 (Homo sapiens) (UniProt Q86YV6)
[24] = molecular target: Myosin-IIIa (Homo sapiens) (UniProt Q8NEV4)
[25] = molecular target: Myosin-IIIb (Homo sapiens) (UniProt Q8WXR4)
[26] = molecular target: Cyclin-dependent kinase 16 (Homo sapiens) (UniProt Q00536)
[27] = molecular target: Phosphatidylinositol 4,5-bisphosphate 3-kinase catalytic subunit alpha isoform (Homo sapiens) (UniProt P42336)
[28] = test system: Phosphatidylinositol 4,5-bisphosphate 3-kinase catalytic subunit alpha isoform (Homo sapiens), P42336 [E542K]
[29] = test system: Phosphatidylinositol 4,5-bisphosphate 3-kinase catalytic subunit alpha isoform (Homo sapiens), P42336 [E545A]
[30] = test system: Phosphatidylinositol 4,5-bisphosphate 3-kinase catalytic subunit alpha isoform (Homo sapiens), P42336 [H1047L]
[31] = molecular target: Phosphatidylinositol 4,5-bisphosphate 3-kinase catalytic subunit gamma isoform (Homo sapiens) (UniProt P48736)
[32] = molecular target: Phosphatidylinositol 5-phosphate 4-kinase type-2 gamma (Homo sapiens) (UniProt Q8TBX8)
[33] = molecular target: Serine/threonine-protein kinase N1 (Homo sapiens) (UniProt Q16512)
[34] = molecular target: Serine/threonine-protein kinase D1 (Homo sapiens) (UniProt Q15139)
[35] = molecular target: cGMP-dependent protein kinase 2 (Homo sapiens) (UniProt Q13237)
[36] = molecular target: Receptor-interacting serine/threonine-protein kinase 1 (Homo sapiens) (UniProt Q13546)
[37] = molecular target: Dual serine/threonine and tyrosine protein kinase (Homo sapiens) (UniProt Q6XUX3)
[38] = molecular target: Ribosomal protein S6 kinase alpha-4 (Homo sapiens) (UniProt O75676)
[39] = molecular target: Ribosomal protein S6 kinase alpha-1 (Homo sapiens) (UniProt Q15418)
[40] = molecular target: Serine/threonine-protein kinase tousled-like 2 (Homo sapiens) (UniProt Q86UE8)
[41] = molecular target: Serine/threonine-protein kinase TNNI3K (Homo sapiens) (UniProt Q59H18)
[42] = molecular target: BDNF/NT-3 growth factors receptor (Homo sapiens) (UniProt Q16620)
[43] = molecular target: NT-3 growth factor receptor (Homo sapiens) (UniProt Q16288)
[44] = molecular target: Phosphatidylinositol 3-kinase catalytic subunit type 3 (Homo sapiens) (UniProt Q8NEB9)
[45] = molecular target: Serine/threonine-protein kinase VRK2 (Homo sapiens) (UniProt Q86Y07)

Cyclin-dependent kinase 4 (Homo sapiens), sequence (P11802 whole entry): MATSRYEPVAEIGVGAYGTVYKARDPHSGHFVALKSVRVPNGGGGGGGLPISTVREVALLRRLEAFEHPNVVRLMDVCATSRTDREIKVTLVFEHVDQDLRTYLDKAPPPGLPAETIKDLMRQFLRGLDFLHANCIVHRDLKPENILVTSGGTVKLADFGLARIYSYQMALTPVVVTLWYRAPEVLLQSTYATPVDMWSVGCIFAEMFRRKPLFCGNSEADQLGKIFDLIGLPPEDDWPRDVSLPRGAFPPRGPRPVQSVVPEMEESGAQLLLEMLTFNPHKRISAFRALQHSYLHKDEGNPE
Myosin-IIIa (Homo sapiens), sequence (Q8NEV4 whole entry): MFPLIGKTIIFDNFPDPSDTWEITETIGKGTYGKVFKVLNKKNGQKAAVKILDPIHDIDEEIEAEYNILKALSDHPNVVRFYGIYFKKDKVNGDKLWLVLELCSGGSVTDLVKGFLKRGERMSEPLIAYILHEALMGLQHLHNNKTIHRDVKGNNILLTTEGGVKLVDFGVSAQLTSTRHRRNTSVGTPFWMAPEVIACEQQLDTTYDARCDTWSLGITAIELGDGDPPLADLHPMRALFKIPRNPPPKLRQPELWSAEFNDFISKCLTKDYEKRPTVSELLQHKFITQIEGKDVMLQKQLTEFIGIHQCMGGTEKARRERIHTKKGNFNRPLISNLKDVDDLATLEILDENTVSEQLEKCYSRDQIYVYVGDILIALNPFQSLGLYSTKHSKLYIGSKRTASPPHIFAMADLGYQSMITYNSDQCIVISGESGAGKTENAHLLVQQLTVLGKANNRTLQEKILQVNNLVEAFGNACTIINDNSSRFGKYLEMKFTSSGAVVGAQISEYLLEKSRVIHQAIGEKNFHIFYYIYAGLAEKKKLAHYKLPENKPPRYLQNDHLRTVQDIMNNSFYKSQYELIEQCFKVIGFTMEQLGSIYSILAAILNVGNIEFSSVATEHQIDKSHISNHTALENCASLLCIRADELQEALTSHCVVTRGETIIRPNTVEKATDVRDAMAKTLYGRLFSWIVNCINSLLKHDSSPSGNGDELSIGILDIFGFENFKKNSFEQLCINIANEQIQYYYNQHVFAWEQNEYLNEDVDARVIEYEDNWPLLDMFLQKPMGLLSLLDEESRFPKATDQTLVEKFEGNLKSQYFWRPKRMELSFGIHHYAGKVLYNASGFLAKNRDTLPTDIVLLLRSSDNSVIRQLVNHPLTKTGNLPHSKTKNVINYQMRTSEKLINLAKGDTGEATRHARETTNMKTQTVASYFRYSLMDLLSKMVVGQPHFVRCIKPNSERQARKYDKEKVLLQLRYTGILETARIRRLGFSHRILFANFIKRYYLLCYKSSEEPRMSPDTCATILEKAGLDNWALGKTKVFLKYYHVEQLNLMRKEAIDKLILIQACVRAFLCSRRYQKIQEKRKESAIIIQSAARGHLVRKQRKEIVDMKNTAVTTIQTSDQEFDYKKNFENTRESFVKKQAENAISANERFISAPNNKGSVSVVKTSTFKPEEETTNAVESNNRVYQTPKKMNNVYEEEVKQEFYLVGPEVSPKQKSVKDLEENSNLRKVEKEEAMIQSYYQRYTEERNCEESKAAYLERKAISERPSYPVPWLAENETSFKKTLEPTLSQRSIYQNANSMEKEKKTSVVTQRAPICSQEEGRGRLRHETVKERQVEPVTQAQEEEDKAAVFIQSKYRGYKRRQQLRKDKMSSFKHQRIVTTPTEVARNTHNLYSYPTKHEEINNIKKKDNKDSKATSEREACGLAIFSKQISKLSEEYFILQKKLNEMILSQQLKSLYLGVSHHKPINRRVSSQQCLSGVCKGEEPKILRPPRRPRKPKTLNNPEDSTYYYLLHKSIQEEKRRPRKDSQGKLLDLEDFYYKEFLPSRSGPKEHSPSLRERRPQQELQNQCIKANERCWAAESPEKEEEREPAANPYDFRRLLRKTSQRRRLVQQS
Phosphatidylinositol 4,5-bisphosphate 3-kinase catalytic subunit alpha isoform (Homo sapiens), P42336 [E545A], sequence (P42336 whole entry E545A, canonical isoform): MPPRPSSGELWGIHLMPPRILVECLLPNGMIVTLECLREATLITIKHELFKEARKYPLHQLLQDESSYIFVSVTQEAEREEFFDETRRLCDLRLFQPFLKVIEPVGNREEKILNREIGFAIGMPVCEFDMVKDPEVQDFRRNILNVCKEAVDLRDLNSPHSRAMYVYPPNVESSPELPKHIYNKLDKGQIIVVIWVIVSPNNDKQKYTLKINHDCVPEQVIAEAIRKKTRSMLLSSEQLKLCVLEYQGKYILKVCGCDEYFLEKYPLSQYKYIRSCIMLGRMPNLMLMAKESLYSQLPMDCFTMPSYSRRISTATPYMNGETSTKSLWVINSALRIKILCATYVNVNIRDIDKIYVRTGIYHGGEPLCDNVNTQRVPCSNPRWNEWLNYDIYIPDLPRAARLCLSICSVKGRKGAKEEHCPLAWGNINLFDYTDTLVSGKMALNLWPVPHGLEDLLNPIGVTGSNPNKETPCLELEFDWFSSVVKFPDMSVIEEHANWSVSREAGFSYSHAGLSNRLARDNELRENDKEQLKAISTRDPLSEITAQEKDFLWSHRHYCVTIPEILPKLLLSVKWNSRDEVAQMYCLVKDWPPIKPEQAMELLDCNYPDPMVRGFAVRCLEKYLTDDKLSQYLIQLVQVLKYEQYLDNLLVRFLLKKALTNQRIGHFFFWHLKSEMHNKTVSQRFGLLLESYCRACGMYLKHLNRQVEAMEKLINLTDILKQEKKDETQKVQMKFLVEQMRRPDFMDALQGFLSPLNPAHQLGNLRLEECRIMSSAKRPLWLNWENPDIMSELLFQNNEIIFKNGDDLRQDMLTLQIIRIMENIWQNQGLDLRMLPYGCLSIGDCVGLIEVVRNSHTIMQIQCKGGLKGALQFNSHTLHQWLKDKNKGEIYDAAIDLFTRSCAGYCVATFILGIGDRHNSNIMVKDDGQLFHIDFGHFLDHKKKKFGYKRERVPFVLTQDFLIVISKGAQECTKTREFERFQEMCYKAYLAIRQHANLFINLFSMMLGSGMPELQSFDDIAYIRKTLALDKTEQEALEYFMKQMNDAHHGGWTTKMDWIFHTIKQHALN
Calcium/calmodulin-dependent protein kinase type II subunit alpha (Homo sapiens), sequence (Q9UQM7 whole entry): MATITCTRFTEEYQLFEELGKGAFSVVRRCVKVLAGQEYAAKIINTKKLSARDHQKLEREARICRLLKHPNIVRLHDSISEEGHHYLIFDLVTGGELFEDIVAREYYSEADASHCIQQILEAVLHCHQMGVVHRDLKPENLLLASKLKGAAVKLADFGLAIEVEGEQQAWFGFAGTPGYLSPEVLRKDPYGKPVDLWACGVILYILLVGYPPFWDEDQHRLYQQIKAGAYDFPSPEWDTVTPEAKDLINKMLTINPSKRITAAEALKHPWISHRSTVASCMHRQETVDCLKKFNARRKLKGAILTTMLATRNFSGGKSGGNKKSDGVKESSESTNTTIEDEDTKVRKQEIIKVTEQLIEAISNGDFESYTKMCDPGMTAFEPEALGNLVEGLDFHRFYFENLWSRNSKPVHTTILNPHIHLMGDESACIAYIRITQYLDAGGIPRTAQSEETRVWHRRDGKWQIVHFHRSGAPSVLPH
Receptor-interacting serine/threonine-protein kinase 1 (Homo sapiens), sequence (Q13546 whole entry): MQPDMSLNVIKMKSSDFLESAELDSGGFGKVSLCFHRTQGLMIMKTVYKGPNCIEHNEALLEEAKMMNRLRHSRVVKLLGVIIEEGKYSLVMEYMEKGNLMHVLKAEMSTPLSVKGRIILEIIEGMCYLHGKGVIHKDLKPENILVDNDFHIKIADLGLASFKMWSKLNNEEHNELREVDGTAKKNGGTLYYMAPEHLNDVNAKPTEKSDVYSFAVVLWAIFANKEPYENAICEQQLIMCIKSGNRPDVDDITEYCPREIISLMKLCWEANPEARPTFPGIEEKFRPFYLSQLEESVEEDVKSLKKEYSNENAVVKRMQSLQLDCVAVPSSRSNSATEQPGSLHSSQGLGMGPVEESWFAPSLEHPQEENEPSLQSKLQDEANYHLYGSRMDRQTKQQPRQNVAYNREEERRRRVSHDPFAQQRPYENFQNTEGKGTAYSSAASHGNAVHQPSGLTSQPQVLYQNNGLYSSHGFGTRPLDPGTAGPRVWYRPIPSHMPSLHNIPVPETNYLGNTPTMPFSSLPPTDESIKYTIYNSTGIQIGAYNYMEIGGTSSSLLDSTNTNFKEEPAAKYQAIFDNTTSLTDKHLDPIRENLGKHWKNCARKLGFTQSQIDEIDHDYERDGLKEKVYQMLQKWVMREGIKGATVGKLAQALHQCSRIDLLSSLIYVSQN
Dual serine/threonine and tyrosine protein kinase (Homo sapiens), sequence (Q6XUX3 whole entry): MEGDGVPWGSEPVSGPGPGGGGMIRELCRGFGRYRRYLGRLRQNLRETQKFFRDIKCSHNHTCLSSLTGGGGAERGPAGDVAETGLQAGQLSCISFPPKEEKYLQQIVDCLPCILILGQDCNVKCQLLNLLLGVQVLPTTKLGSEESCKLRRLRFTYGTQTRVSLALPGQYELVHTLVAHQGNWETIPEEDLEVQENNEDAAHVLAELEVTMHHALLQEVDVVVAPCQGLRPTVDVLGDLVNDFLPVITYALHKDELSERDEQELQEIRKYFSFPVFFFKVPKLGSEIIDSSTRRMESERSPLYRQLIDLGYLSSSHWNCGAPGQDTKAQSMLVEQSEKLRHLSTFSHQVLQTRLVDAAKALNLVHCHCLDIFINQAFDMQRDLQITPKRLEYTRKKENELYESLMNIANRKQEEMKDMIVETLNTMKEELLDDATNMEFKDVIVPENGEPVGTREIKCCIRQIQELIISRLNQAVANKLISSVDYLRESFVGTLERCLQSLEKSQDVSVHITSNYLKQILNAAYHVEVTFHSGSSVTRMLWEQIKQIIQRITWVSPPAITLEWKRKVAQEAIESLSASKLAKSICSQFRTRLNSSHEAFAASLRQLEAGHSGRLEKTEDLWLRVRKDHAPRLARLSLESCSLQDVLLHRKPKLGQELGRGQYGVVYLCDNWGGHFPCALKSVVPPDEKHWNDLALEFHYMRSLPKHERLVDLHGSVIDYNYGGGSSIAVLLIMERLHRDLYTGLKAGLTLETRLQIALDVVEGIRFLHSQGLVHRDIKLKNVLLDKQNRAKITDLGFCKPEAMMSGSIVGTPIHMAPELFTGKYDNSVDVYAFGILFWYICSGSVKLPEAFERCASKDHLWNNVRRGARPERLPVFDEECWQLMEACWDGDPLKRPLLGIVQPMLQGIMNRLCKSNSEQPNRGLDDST

CCCCN(CCCC)C(=O)CN1C[C@H](c2cc(OC)c3c(c2)OCO3)[C@@H](C(=O)O)[C@@H]1CC(C)(C)CCC [ABT-546]
residual activity [1]: 90.3% | residual activity [2]: 100% | residual activity [3]: 100% | residual activity [4]: 42.7% | residual activity [5]: 100% | residual activity [6]: 100% | residual activity [7]: 43% | residual activity [8]: 79% | residual activity [9]: 100% | residual activity [10]: 100% | residual activity [11]: 70.6% | residual activity [12]: 100% | residual activity [13]: 100% | residual activity [14]: 100% | residual activity [15]: 100% | residual activity [16]: 80.9% | residual activity [17]: 91.1% | residual activity [18]: 100% | residual activity [19]: 100% | residual activity [20]: 81.2% | residual activity [21]: 64.8% | residual activity [22]: 100% | residual activity [23]: 99.1% | residual activity [24]: 100% | residual activity [25]: 88.6% | residual activity [26]: 74.8% | residual activity [27]: 89.7% | residual activity [28]: 57.4% | residual activity [29]: 89.8% | residual activity [30]: 100% | residual activity [31]: 76.9% | residual activity [32]: 100% | residual activity [33]: 100% | residual activity [34]: 79.4% | residual activity [35]: 100% | residual activity [36]: 100% | residual activity [37]: 68.6% | residual activity [38]: 100% | residual activity [39]: 100% | residual activity [40]: 100% | residual activity [41]: 100% | residual activity [42]: 62% | residual activity [43]: 50.5% | residual activity [44]: 49.9% | residual activity [45]: 72.8%

CCCCN(CCCC)C(=O)CN1C[C@@H](c2cc(OC)c3c(c2)OCO3)[C@H](C(=O)O)[C@H]1CC(C)(C)CCC [A-545]
residual activity [1]: 90.2% | residual activity [2]: 100% | residual activity [3]: 100% | residual activity [4]: 100% | residual activity [5]: 92.7% | residual activity [6]: 78% | residual activity [7]: 100% | residual activity [8]: 86.7% | residual activity [9]: 96.5% | residual activity [10]: 100% | residual activity [11]: 100% | residual activity [12]: 88.5% | residual activity [13]: 75.2% | residual activity [14]: 100% | residual activity [15]: 100% | residual activity [16]: 89.7% | residual activity [17]: 100% | residual activity [18]: 79% | residual activity [19]: 99% | residual activity [20]: 84.6% | residual activity [21]: 100% | residual activity [22]: 93.9% | residual activity [23]: 100% | residual activity [24]: 100% | residual activity [25]: 91% | residual activity [26]: 100% | residual activity [27]: 95.9% | residual activity [28]: 100% | residual activity [29]: 77.9% | residual activity [30]: 62.4% | residual activity [31]: 90.8% | residual activity [32]: 80.7% | residual activity [33]: 85% | residual activity [34]: 100% | residual activity [35]: 100% | residual activity [36]: 100% | residual activity [37]: 99.7% | residual activity [38]: 100% | residual activity [39]: 75.7% | residual activity [40]: 100% | residual activity [41]: 95.9% | residual activity [42]: 98.3% | residual activity [43]: 87.6% | residual activity [44]: 98.7% | residual activity [45]: 95.4%
